Experimental data from ChEMBL document CHEMBL4368862, “Design, synthesis, and anticancer activity evaluation of irreversible allosteric inhibitors of the ubiquitin-conjugating enzyme Ube2g2” (Medchemcomm, 2018).
Calls of active or inactive are those of the source. No cut-off for these calls is given here.

Experiments:
[1] = biological target: T1, Ubiquitin-conjugating enzyme E2 G2 (Homo sapiens) (UniProt P60604); assay: Binding affinity to recombinant TEV cleavage site-fused-His6-tagged Ube2g2 (unknown origin) expressed in Escherichia coli Rosetta2 (DE3) assessed as compound-protein complex formation at 5 uL measured after overnight incubation at pH 7.4 by LC/MS analysis
T1 sequence (whole entry): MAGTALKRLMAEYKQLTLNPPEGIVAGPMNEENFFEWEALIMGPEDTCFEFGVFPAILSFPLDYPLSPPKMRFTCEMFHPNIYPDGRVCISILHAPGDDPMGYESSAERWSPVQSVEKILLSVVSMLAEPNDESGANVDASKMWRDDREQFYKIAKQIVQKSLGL

[2] = biological target: T1, Ubiquitin-conjugating enzyme E2 G2 (Homo sapiens); assay: (§1) Binding affinity to recombinant TEV cleavage site-fused-His6-tagged Ube2g2 (unknown origin) expressed in Escherichia coli Rosetta2 (DE3) assessed as molecular weight of compound-protein conjugate at 5 uL measured after overnight incubation at pH 8.5 by LC/MS analysis (reference value: 18491 Da)
[3] = biological target: T1, Ubiquitin-conjugating enzyme E2 G2 (Homo sapiens); assay: as §1, with “assessed as modification of Cys75 residue by measuring molecular weight” for “assessed as molecular weight”
[4] = biological target: T1, Ubiquitin-conjugating enzyme E2 G2 (Homo sapiens); assay: as §1, with “assessed as modification of Cys89 residue by measuring molecular weight” for “assessed as molecular weight”
[5] = biological target: T1, Ubiquitin-conjugating enzyme E2 G2 (Homo sapiens); assay: as §1, with “assessed as modification of Cys48 residue by measuring molecular weight” for “assessed as molecular weight”

`CCOC(=O)/C=C/[C@H](Cc1ccc(-c2cc(Cl)cc(Cl)c2)cc1)NC(=O)OC(C)(C)C` was tested, and the Activity [1] was “inactive” and the Activity [2] was 18900 Da.
In the case of `C=CCC(=O)N[C@@H](/C=C/C(=O)OCC)Cc1ccc(-c2cc(Cl)cc(Cl)c2)cc1`, the Activity [1] is reported as “inactive” and the Activity [2] is reported as “inactive”.
With `C=CC(=O)N[C@H](Cc1ccc(-c2cc(Cl)cc(Cl)c2)cc1)[C@@H](O)[C@H](O)C(=O)O` the Activity [1] was “inactive” and the Activity [2] was 18900 to 19300 Da.
With `C=CC(=O)N[C@@H](Cc1ccc(-c2cc(Cl)cc(Cl)c2)cc1)[C@H](O)[C@@H](O)C(=O)OCC` the Activity [1] was “inactive” and the Activity [2] was 18900 Da.
In the case of `C=CC(=O)N[C@H](Cc1ccc(-c2cc(Cl)cc(Cl)c2)cc1)[C@@H](O)[C@H](O)C(=O)OCC`, the Activity [1] is reported as “inactive” and the Activity [2] is reported as 18900 Da.
For `C=CC(=O)N[C@H](/C=C/C(=O)OCC)Cc1ccc(-c2cc(Cl)cc(Cl)c2)cc1`, the Activity [1] was “inactive” and the Activity [2] was 18900 Da.
`C=CCC(=O)N[C@@H](CO)Cc1ccc(-c2cc(Cl)cc(Cl)c2)cc1` was tested, and the Activity [1] was “inactive” and the Activity [2] was “inactive”.
With `C=CC(=O)N[C@@H](CO)Cc1ccc(-c2cc(Cl)cc(Cl)c2)cc1` the Activity [1] was “inactive” and the Activity [2] was 18800 to 19200 Da.
With `C=CC(=O)N[C@@H](Cc1ccc(-c2cc(Cl)cc(Cl)c2)cc1)[C@H](O)[C@@H](O)C(=O)O` the Activity [1] was “inactive” and the Activity [2] was “inactive”.
`C=CCC(=O)N[C@@H](Cc1ccc(-c2cc(Cl)cc(Cl)c2)cc1)[C@H](O)[C@@H](O)C(=O)O` was tested, and the Activity [1] was “inactive” and the Activity [2] was “inactive”.
With `C=CCC(=O)N[C@H](Cc1ccc(-c2cc(Cl)cc(Cl)c2)cc1)[C@@H](O)[C@H](O)C(=O)O` the Activity [1] was “inactive” and the Activity [2] was “inactive”.
In the case of `C=CCC(=O)N[C@H](CO)Cc1ccc(-c2cc(Cl)cc(Cl)c2)cc1`, the Activity [1] is reported as “inactive” and the Activity [2] is reported as “inactive”.
With `C=CCC(=O)N[C@@H](/C=C/C(=O)O)Cc1ccc(-c2cc(Cl)cc(Cl)c2)cc1` the Activity [1] was “inactive” and the Activity [2] was “inactive”.
In the case of `C=CC(=O)N[C@@H](/C=C/C(=O)O)Cc1ccc(-c2cc(Cl)cc(Cl)c2)cc1`, the Activity [1] is reported as “inactive” and the Activity [2] is reported as 18900 Da.
With `C=CCC(=O)N[C@H](Cc1ccc(-c2cc(Cl)cc(Cl)c2)cc1)[C@@H](O)[C@H](O)C(=O)OCC` the Activity [1] was “inactive” and the Activity [2] was “inactive”.
With `CC(C)(C)OC(=O)N[C@H](C=O)Cc1ccc(-c2cc(Cl)cc(Cl)c2)cc1` the Activity [1] was “inactive” and the Activity [2] was 18900 to 19300 Da.
In the case of `C=CC(=O)N[C@@H](/C=C/C(=O)OCC)Cc1ccc(-c2cc(Cl)cc(Cl)c2)cc1`, the Activity [1] is reported as “inactive” and the Activity [2] is reported as 18900 Da.
For `C=CCC(=O)N[C@H](/C=C/C(=O)OCC)Cc1ccc(-c2cc(Cl)cc(Cl)c2)cc1`, the Activity [1] was “inactive” and the Activity [2] was “inactive”.
For `C=CCC(=O)N[C@@H](Cc1ccc(-c2cc(Cl)cc(Cl)c2)cc1)[C@H](O)[C@@H](O)C(=O)OCC`, the Activity [1] was “inactive” and the Activity [2] was “inactive”.
`C=CC(=O)N[C@H](CO)Cc1ccc(-c2cc(Cl)cc(Cl)c2)cc1` showed an Activity [3] of 19200 Da, an Activity [4] of 19500 Da and an Activity [5] of 18800 Da. For the same compound, the Activity [1] was “inactive”.
